{"source": "paper PMC8026785", "about": "“The pharmacokinetics of [^18F]UCB-H revisited in the healthy non-human primate brain” (EJNMMI Research, 2021)", "biological_target": "T1, SV2A (Macaca fascicularis, UniProt Q4R4X3)", "T1 construct": "The current study evaluates [^18F]UCB-H pharmacokinetics in healthy NHPs; from tissue; host or cells: brain of living healthy cynomolgus monkeys (in vivo PET)", "T1 sequence (Q4R4X3 whole entry)": "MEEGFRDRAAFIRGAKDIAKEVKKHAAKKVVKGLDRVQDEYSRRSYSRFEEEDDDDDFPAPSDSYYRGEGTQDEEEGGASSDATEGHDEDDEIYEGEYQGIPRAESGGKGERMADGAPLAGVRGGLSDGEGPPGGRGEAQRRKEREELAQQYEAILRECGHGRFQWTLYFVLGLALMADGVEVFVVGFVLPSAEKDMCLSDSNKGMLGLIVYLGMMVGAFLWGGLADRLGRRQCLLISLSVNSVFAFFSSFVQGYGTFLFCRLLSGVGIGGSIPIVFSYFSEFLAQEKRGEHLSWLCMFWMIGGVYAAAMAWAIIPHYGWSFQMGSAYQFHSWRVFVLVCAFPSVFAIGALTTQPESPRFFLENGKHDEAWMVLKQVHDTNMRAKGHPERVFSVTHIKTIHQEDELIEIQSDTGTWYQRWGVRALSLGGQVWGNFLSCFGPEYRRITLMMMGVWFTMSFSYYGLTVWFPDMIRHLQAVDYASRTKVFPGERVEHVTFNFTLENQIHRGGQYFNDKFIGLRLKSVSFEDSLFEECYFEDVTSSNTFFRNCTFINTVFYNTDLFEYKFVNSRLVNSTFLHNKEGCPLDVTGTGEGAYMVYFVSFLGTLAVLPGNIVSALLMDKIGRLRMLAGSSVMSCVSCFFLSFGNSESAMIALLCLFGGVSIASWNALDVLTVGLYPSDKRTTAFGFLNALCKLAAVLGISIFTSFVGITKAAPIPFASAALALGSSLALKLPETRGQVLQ", "assay": "Brain PET kinetic modelling (1TCM, 2TCM, 2TCM-c, Logan), test-retest", "format": "in vivo, cynomolgus monkeys (Macaca fascicularis)", "protocol": "All four non-human primates (NHP) underwent a 2-h (2 h) test and retest PET scan; two NHP underwent an additional 4-h (4 h) retest PET scan. Three NHP underwent one 4-h (4 h) displacement PET scan. Arterial blood sampling was performed during test and retest scans with PET imaging spaced by at least 3 weeks between each scan. To this end, the femoral artery opposite to the saphenous vein used for radioligand injection was cannulated. For the 2-h (2 h) scans, we collected in total 28 blood samples of 1 mL: 16 samples during the first 5 min followed by […] every 5 min and […] every 10 min. For the 4 h scans, we collected an additional 6 samples every 20 min during the last two hours (34 samples in total). Larger samples (2 – 3 mL) were collected at 5, 15, 30, 60, 90, 120 min (2 h) and at 180, 240 min (4 h) for metabolite analysis. Displacement of [^18F]UCB-H was done by intravenous (IV) administration 90 min after [^18F]UCB-H injection of a bolus of 30 mg/kg LEV, or of 80 µg/kg (≈250 nmol/kg) or 5 mg/kg (≈15 µmol/kg) of cold [^19F]-UCB-H. Full experimental design of all NHP is outlined in Additional file 1: Table 1.\nPET imaging was performed on the microPET FOCUS220 (Siemens) under standard anesthesia and monitoring procedures. Data acquisition started with the IV bolus injection of [^18F]UCB-H (32.9 ± 1.0 MBq/kg, 0.35 ± 0.07 µg/kg). Dynamic PET images were reconstructed using standard OSEM-2D algorithms while correcting for radioactive decay, scatter, attenuation and detectors inhomogeneity, which were measured prior to PET scanning using respectively ^57Co and ^68Ge external sources.\nPET image analysis was performed using PMOD software version 3.8 (PMOD Technologies Ltd., Zurich, Suisse). After individual co-registration of PET-MR images, a cynomolgus atlas published by Ballanger and coworkers was normalized to PET images to extract time activity curves in different brain regions. Volumes of interest (VOI) were cerebral white matter (16.7 cm^3), striatum (0.24 cm^3), thalamus (0.89 cm^3), cerebellum (3.83 cm^3), frontal—(2.50 cm^3), parietal—(5.35 cm^3), and temporal (8.22 cm^3) cortex, and whole brain (72.2 cm^3) as a composite region of all regions in the atlas. [^18F]UCB-H pharmacokinetics were evaluated by analyzing the time activity curves of the test- and retest scans using 1- and 2-tissue compartment models (unconstrained and constrained with global K1/k2 coupled fit across all regions, further referred to as 2TCM and 2TCM-c), and Logan graphical analysis with a fixed t* at 60 min [33] using the arterial plasma input function corrected for radio-metabolites to derive the volume of distribution in each region. Percentage standard error (%SE) was estimated from the theoretical parameter covariance matrix. Only reliable estimates (%SE less than 25%) were included in the current analyses. For the three drug studies, percent displacement of the total activity in the whole brain was estimated relative to an average baseline constructed from the two 4 h baseline studies. Briefly, Standardized Uptake Value (SUV) time activity curves (TACs) were calculated for the two baseline and the three displacement studies. Then, each curve was normalized to the SUV at t = 90 min, corresponding to the timeframe immediately before the administration of the drugs in the displacement studies. Baseline curves were averaged and the percent displacement of total activity was calculated as (baseline-displacement)/baseline at a given time post drug administration (see “Results”).\nStatistical analysis was performed using R software (version 3.3.1.). Plasma, intact parent fraction and time activity curves were statistically compared between subjects using a one-factor variance analysis. Absolute Test–Retest variability (aTRV) of PET quantification parameters was calculated as ABS(test—retest) / AVERAGE(test, retest). […]", "key": {"[1]": {"conditions": "Parietal Cortex, Retest, individual NHP"}, "[2]": {"conditions": "Parietal Cortex, Test, individual NHP"}, "[3]": {"conditions": "Striatum, Retest, individual NHP"}}, "note": "“And” between values parts separate entries of the source, which are not always exact repeats. Equal values may be shown once."}
{"smiles": "O=C1C[C@H](c2cc(F)c(F)c(F)c2)CN1Cc1ccncc1[18F]", "note": "[[^18F]UCB-H]", "values": [{"measurement": "VT (2TCM)", "setting": "Frontal cortex, Retest, mean", "value": 13.1, "unit": "mL/cm^3"}, {"measurement": "VT (2TCM-c)", "setting": "Frontal cortex, Retest, mean", "value": 14.7, "unit": "mL/cm^3"}, {"measurement": "VT (Logan (t* = 60))", "setting": "Frontal cortex, Retest, mean", "value": 14.8, "unit": "mL/cm^3"}, {"measurement": "k3/k4 (BPND) (2TCM-c)", "setting": "Frontal cortex, Retest, mean", "value": 1.32}, {"measurement": "VT (1TCM)", "setting": "Frontal cortex, Test, mean", "value": 13.8, "unit": "mL/cm^3"}, {"measurement": "VT (2TCM)", "setting": "Frontal cortex, Test, mean", "value": 16.3, "unit": "mL/cm^3"}, {"measurement": "VT (2TCM-c)", "setting": "Frontal cortex, Test, mean", "value": 14.8, "unit": "mL/cm^3"}, {"measurement": "VT (Logan (t* = 60))", "setting": "Frontal cortex, Test, mean", "value": 15.0, "unit": "mL/cm^3"}, {"measurement": "k3/k4 (BPND) (2TCM-c)", "setting": "Frontal cortex, Test, mean", "value": 1.25}, {"measurement": "ICC of VT, overall", "setting": "Logan", "value": "~ 0.6"}, {"measurement": "aTRV of VT, overall", "setting": "Logan", "value": "~ 11% and ~ 12%"}, {"measurement": "aTRV of VT", "setting": "MA1, data not shown", "value": "~ 11%"}, {"measurement": "K1 (2TCM)", "setting": "[1]", "value": "0.42 ml/cm^3 /min and 0.32 ml/cm^3 /min and 0.38 ml/cm^3 /min and 0.33 ml/cm^3 /min"}, {"measurement": "K1 (2TCM-c)", "setting": "[1]", "value": "0.44 ml/cm^3 /min and 0.33 ml/cm^3 /min and 0.38 ml/cm^3 /min and 0.34 ml/cm^3 /min"}, {"measurement": "K1/k2 (2TCM)", "setting": "[1]", "value": "13.02 ml/cm^3 and 14.99 ml/cm^3"}, {"measurement": "K1/k2 (2TCM-c)", "setting": "[1]", "value": "4.64 ml/cm^3 and 9.07 ml/cm^3 and 10.70 ml/cm^3 and 7.25 ml/cm^3"}, {"measurement": "VT (1TCM)", "setting": "[1]", "value": "13.99 ml/cm^3 and 16.57 ml/cm^3 and 15.57 ml/cm^3 and 13.26 ml/cm^3"}, {"measurement": "VT (2TCM)", "setting": "[1]", "value": "13.98 ml/cm^3 and 13.26 ml/cm^3"}, {"measurement": "VT (2TCM-c)", "setting": "[1]", "value": "14.02 ml/cm^3 and 18.28 ml/cm^3 and 18.66 ml/cm^3 and 13.26 ml/cm^3"}, {"measurement": "VT (Logan)", "setting": "[1]", "value": "13.75 ml/cm3 and 19.72 ml/cm3 and 15.91 ml/cm3 and 13.60 ml/cm3"}, {"measurement": "k3/k4 (2TCM-c)", "setting": "[1]", "value": "2.02 and 1.04 and 0.78 and 0.83"}, {"measurement": "K1 (2TCM)", "setting": "[2]", "value": "0.22 ml/cm^3 /min and 0.40 ml/cm^3 /min and 0.41 ml/cm^3 /min and 0.18 ml/cm^3 /min"}, {"measurement": "K1 (2TCM-c)", "setting": "[2]", "value": "0.23 ml/cm^3 /min and 0.41 ml/cm^3 /min and 0.42 ml/cm^3 /min and 0.18 ml/cm^3 /min"}, {"measurement": "K1/k2 (2TCM)", "setting": "[2]", "value": "7.68 ml/cm^3 and 12.37 ml/cm^3 and 12.79 ml/cm^3 and 13.88 ml/cm^3"}, {"measurement": "K1/k2 (2TCM-c)", "setting": "[2]", "value": "4.35 ml/cm^3 and 8.22 ml/cm^3 and 10.99 ml/cm^3 and 7.86 ml/cm^3"}, {"measurement": "VT (1TCM)", "setting": "[2]", "value": "10.65 ml/cm^3 and 17.46 ml/cm^3 and 14.10 ml/cm^3 and 15.09 ml/cm^3"}, {"measurement": "VT (2TCM)", "setting": "[2]", "value": "12.22 ml/cm^3 and 18.71 ml/cm^3"}, {"measurement": "VT (2TCM-c)", "setting": "[2]", "value": "11.12 ml/cm^3 and 17.78 ml/cm^3 and 15.03 ml/cm^3 and 17.47 ml/cm^3"}, {"measurement": "VT (Logan)", "setting": "[2]", "value": "11.83 ml/cm3 and 18.19 ml/cm3 and 15.28 ml/cm3 and 16.49 ml/cm3"}, {"measurement": "k3/k4 (2TCM)", "setting": "[2]", "value": 0.59}, {"measurement": "k3/k4 (2TCM-c)", "setting": "[2]", "value": "1.56 and 1.38 and 0.37 and 1.00"}, {"measurement": "ICC of 2TCM-c VT", "setting": "Parietal cortex", "value": 0.38}, {"measurement": "ICC of Logan (t* = 60) VT", "setting": "Parietal cortex", "value": 0.75}, {"measurement": "aTRV of 2TCM-c VT", "setting": "Parietal cortex", "value": 19, "unit": "%"}, {"measurement": "aTRV of Logan (t* = 60) VT", "setting": "Parietal cortex", "value": 12, "unit": "%"}, {"measurement": "VT (1TCM)", "setting": "Parietal cortex, Retest, mean", "value": 14.8, "unit": "mL/cm^3"}, {"measurement": "VT (2TCM)", "setting": "Parietal cortex, Retest, mean", "value": 13.6, "unit": "mL/cm^3"}, {"measurement": "VT (2TCM-c)", "setting": "Parietal cortex, Retest, mean", "value": 16.1, "unit": "mL/cm^3"}, {"measurement": "VT (Logan (t* = 60))", "setting": "Parietal cortex, Retest, mean", "value": 15.7, "unit": "mL/cm^3"}, {"measurement": "k3/k4 (BPND) (2TCM-c)", "setting": "Parietal cortex, Retest, mean", "value": 1.17}, {"measurement": "VT (1TCM)", "setting": "Parietal cortex, Test, mean", "value": 14.3, "unit": "mL/cm^3"}, {"measurement": "VT (2TCM)", "setting": "Parietal cortex, Test, mean", "value": 15.5, "unit": "mL/cm^3"}, {"measurement": "VT (2TCM-c)", "setting": "Parietal cortex, Test, mean", "value": 15.4, "unit": "mL/cm^3"}, {"measurement": "VT (Logan (t* = 60))", "setting": "Parietal cortex, Test, mean", "value": 15.4, "unit": "mL/cm^3"}, {"measurement": "k3/k4 (BPND) (2TCM-c)", "setting": "Parietal cortex, Test, mean", "value": 1.08}, {"measurement": "ICC of Logan (t* = 60) VT", "setting": "Striatum", "value": 0.67}, {"measurement": "aTRV of 2TCM-c VT", "setting": "Striatum", "value": 12, "unit": "%"}, {"measurement": "aTRV of Logan (t* = 60) VT", "setting": "Striatum", "value": 11, "unit": "%"}, {"measurement": "K1 (2TCM)", "setting": "[3]", "value": "0.41 ml/cm^3 /min and 0.54 ml/cm^3 /min and 0.44 ml/cm^3 /min and 0.46 ml/cm^3 /min"}, {"measurement": "K1 (2TCM-c)", "setting": "[3]", "value": "0.42 ml/cm^3 /min and 0.58 ml/cm^3 /min and 0.46 ml/cm^3 /min and 0.47 ml/cm^3 /min"}, {"measurement": "K1/k2 (2TCM)", "setting": "[3]", "value": "11.34 ml/cm^3 and 15.36 ml/cm^3"}, {"measurement": "K1/k2 (2TCM-c)", "setting": "[3]", "value": "7.25 ml/cm^3 and 4.64 ml/cm^3 and 9.07 ml/cm^3 and 10.70 ml/cm^3"}, {"measurement": "VT (1TCM)", "setting": "[3]", "value": "13.04 ml/cm^3 and 14.96 ml/cm^3 and 15.52 ml/cm^3 and 15.75 ml/cm^3"}, {"measurement": "VT (2TCM)", "setting": "[3]", "value": "13.09 ml/cm^3 and 15.01 ml/cm^3"}, {"measurement": "VT (2TCM-c)", "setting": "[3]", "value": "13.08 ml/cm^3 and 15.06 ml/cm^3 and 17.64 ml/cm^3 and 15.26 ml/cm^3"}, {"measurement": "VT (Logan)", "setting": "[3]", "value": "13.39 ml/cm3 and 14.93 ml/cm3 and 18.31 ml/cm3 and 16.14 ml/cm3"}, {"measurement": "k3/k4 (2TCM-c)", "setting": "[3]", "value": "0.80 and 2.25 and 0.97 and 0.45"}, {"measurement": "VT (1TCM)", "setting": "Striatum, Retest, mean", "value": 14.8, "unit": "mL/cm^3"}, {"measurement": "VT (2TCM)", "setting": "Striatum, Retest, mean", "value": 14.1, "unit": "mL/cm^3"}, {"measurement": "VT (2TCM-c)", "setting": "Striatum, Retest, mean", "value": 15.3, "unit": "mL/cm^3"}]}
